Test results: patent US20160115540A1, “PRODRUGS AND DRUGS” (Biogen MA Inc., priority 2013, published 2016)
Where a name gives a salt, the structure may show the parent alone.

Test system: brain
Assay: Transcriptional profiling, multi-dosing regimen, naïve mice: brain
Assay type: in vivo
Details: for FC: BRAIN_HEMI, 100MMF-vs-Veh
Procedure: In vivo, DMF is rapidly metabolized to monomethyl fumarate (MMF). […] Animals were exposed to CO2 and whole blood collected via cardiac puncture. Two 100 μl aliquots of whole blood were collected in 1.5 mL microcentrifuge tubes and snap frozen in liquid nitrogen. Peripheral (liver, spleen, kidney and jejunum) and CNS brain (cerebellum, hippocampus, striatum and cortex) tissues were harvested and snap frozen in liquid nitrogen, with special care taken to collect tissues of similar size and from the same location. All samples were stored at -80° C. until RNA extraction was conducted. For RNA preparation, frozen tissues were placed in 2 mL RNAse-free 96-well blocks with 1.5 mL QIAzol Lysis Reagent (QIAgen) and a 3.2 mm stainless steel bead (BioSpec Products, Bartlesville, Okla.). Tissues were disrupted for four cycles of 45 seconds in a Mini-Beadbeater (Biospec Products). RNA was extracted in chloroform and the aqueous phase was mixed with an equal volume of 70% ethanol. Extracted RNA was applied to RNeasy 96 plates and purified by the spin method according to the manufacturer's protocol (RNeasy 96 Universal Tissue Protocol, QIAgen, Hilden Germany). […] Two micrograms of biotin labeled […] probe were hybridized to Affymetrix GeneChip Affymetrix HT_MG-430_PM plate arrays with modified conditions as described in […] et al. Washing and staining of the hybridized arrays were completed as described in the GeneChip Expression analysis technical manual for HT plate arrays using the Genechip® Array Station (Affymetrix, Santa Clara, Calif.) with modifications as described in […] et al. The processed GeneChip® plate arrays were scanned using GeneTitan scanner (Affymetrix, Santa Clara, Calif.). Affymetrix scans were subject to quality control (QC) measures. These tests included a visual inspection of the distribution of raw signal intensities and an assessment of RNA degradation, relative log expression (RLE), and normalized unsealed standard error (NUSE). All sample scans that passed these QC metrics were included in the analysis. All CEL files were subjected to GC-content-based Robust Multi-array Average (GCRMA) normalization (version 2.20.0) (Irizarry R A, et al. Nucleic Acids Res 2003; 31:e15; Li C, et al. […] Stat Appl Genet Mol Biol 2004; 3:Article3). […] Springer Science+Business Media 2005). Changes in gene expression were studied by applying a linear modeling approach to fit gene expression levels according to the defined groups of samples (e.g. DMF-, MMF-, and Vehicle-treated animals) and Bayesian posterior error analysis as implemented by Smyth (Smyth G K. Stat Appl Genet Mol Biol 2004; 3:Article3). The comparisons considered included: DMF-vs-MMF, DMF-vs-Vehicle, and MMF-vs-Vehicle. […] Very few DEGs are observed in blood and tissues derived from the central nervous system (brain, cerebellum, cortex, striatum, and spinal cord).

SMILES: COC(=O)/C=C/C(=O)O [MMF, monomethyl fumarate]
- FC (0610037L13Rik 1429879_PM_at): −1.51
- FC (1436646_PM_at (no gene symbol)): −1.53
- FC (1437987_PM_at (no gene symbol)): −1.66
- FC (1438259_PM_at (no gene symbol)): −1.59
- FC (2310079F09Rik 1433201_PM_at): 2.17
- FC (2610021A01Rik 1438786_PM_a_at): −1.90
- FC (2610044O15Rik 1428693_PM_at): −1.52
- FC (2900062L11Rik 1428333_PM_at): −1.50
- FC (4930432O21Rik 1434625_PM_at): −1.66
- FC (4930453N24Rik 1438553_PM_x_at): −1.61
- FC (4933421E11Rik 1428162_PM_at): −1.50
- FC (A730017C20Rik 1437528_PM_x_at): −2.06
- FC (AI597468 1433897_PM_at): −1.51
- FC (AI747699 1433914_PM_at): −2.28
- FC (Abi1 1438506_PM_s_at): −2.04
- FC (Acad9 1429581_PM_at): −1.55
- FC (Akr1a4 1430123_PM_a_at): −1.75
- FC (Aldh9a1 1436689_PM_a_at): −1.63
- FC (Aldh18a1 1437325_PM_x_at): −1.51
- FC (Ampd2 1438941_PM_x_at): −1.76
- FC (Apex1 1437715_PM_x_at): −1.52
- FC (Appl1 1436116_PM_x_at): −1.62
- FC (Arhgap21 1428369_PM_s_at): −1.66
- FC (Atp13a5 1436411_PM_at): −1.51
- FC (Atxn10 1438653_PM_x_at): −1.69
- FC, Depp (1433836_PM_a_at) (BrainHemi, multi-dosing, MMF-vs-Vehicle): −1.01
- FC (Btg1 /// LOC100047353 1437455_PM_a_at): −1.55
- FC (Cadm2 1429211_PM_at): −1.76
- FC (Cadm2 1435146_PM_s_at): −2.25
- FC (Cherp 1436885_PM_a_at): −1.99
- FC (Chuk 1428210_PM_s_at): −1.68
- FC (Clcc1 1436390_PM_a_at): −1.64
- FC (Clvs1 1433906_PM_at): −1.54
- FC (Cpt1a 1434866_PM_x_at): −1.81
- FC (Cttnbp2 1435435_PM_at): −1.75
- FC (Dab2 1429693_PM_at): 1.53
- FC (Ddx5 1438371_PM_x_at): −1.52
- FC (Derl1 1437723_PM_s_at): −1.51
- FC (Dnpep 1438557_PM_x_at): −1.50
- FC (Enoph1 1437327_PM_x_at): −1.62
- FC (Fam13c 1436761_PM_s_at): −1.83
- FC (Fbxo11 1434108_PM_at): −1.50
- FC (Gm5256 /// Gm5529 /// Slc25a5 1438360_PM_x_at): −1.53
- FC (Gm5256 /// Gm5529 /// Slc25a5 1438922_PM_x_at): −1.51
- FC (Gm6159 /// Hnrnpr 1437526_PM_x_at): −1.61
- FC (Gm11793 /// Hnrnpf 1437099_PM_x_at): −1.53
- FC (Gm13342 /// Gm15776 /// Gm3150 /// Gng5 /// LOC100044719 1436946_PM_s_at): −1.70
- FC (Gm14288 1429712_PM_at): −1.68
- FC (Gns 1433488_PM_x_at): −2.01
- FC (Gria4 1436772_PM_at): −1.57
- FC (Hadhb 1437172_PM_x_at): −1.86
- FC (Hbxip 1436152_PM_a_at): −1.65
- FC (Higd1c /// Mettl7a1 /// Mettl7a2 1434150_PM_a_at): −1.60
- FC (Hnrpdl 1428224_PM_at): −1.60
- FC (Hs3st2 1438624_PM_x_at): −1.86
- FC (Impa1 1436848_PM_x_at): −1.55
- FC (Ing1 1433267_PM_at): 1.53
- FC (Ipo4 1436420_PM_a_at): −1.64
- FC (Itgb8 1436223_PM_at): −1.59
- FC (LOC100047324 /// Sesn1 1438931_PM_s_at): −1.97
- FC (Laptm4b 1436915_PM_x_at): −1.68
- FC (Lasp1 1438634_PM_x_at): −1.50
- FC (Mettl9 1438171_PM_x_at): −1.63
- FC (Mthfd2l 1429599_PM_a_at): −1.71
- FC (Ncoa2 1435233_PM_at): −1.55
- FC (Ndufb6 1434056_PM_a_at): −1.56
- FC (Nelf 1436959_PM_x_at): −1.65
- FC (Nxph1 1436718_PM_at): −1.56
- FC (Paics 1436298_PM_x_at): −1.57
- FC (Paqr3 1429216_PM_at): −1.56
- FC (Phyhipl 1437062_PM_s_at): −1.69
- FC (Pisd-ps1 /// Pisd-ps3 1436944_PM_x_at): −2.43
- FC (Pofut2 1437845_PM_x_at): −1.98
- FC (Poldip3 1437837_PM_x_at): −1.74
- FC (Polr3a 1437525_PM_a_at): −1.76
- FC (Ppip5k2 1433856_PM_at): −1.57
- FC (Prkg2 1435162_PM_at): −1.69
- FC (Prss23 1437671_PM_x_at): −1.74
- FC (Ptpdc1 1433823_PM_at): −1.59
- FC (Ptpn2 1438562_PM_a_at): −1.74
- FC (Rgs19 1434940_PM_x_at): −1.51
- FC (Rif1 1429490_PM_at): −1.82
- FC (Rnf14 1437035_PM_x_at): −1.68
- FC (Rnf157 1434427_PM_a_at): −1.67
- FC (Sfrs13b 1437168_PM_at): −1.66
- FC (Slc9a3r1 1438115_PM_a_at): −1.85
- FC (Slc12a6 1436989_PM_s_at): −1.80
- FC (Snx16 1438803_PM_s_at): −1.55
- FC (Sp4 1437508_PM_at): −1.54
- Number of differentially expressed genes identified: Brain Hemi (Table 13: Naïve, Single Dose (so in the source), 90 mpk MMF-vs-Vehicle, 12 h after last dosing): 280
- FC (Tchh 1434425_PM_at): −1.64
- FC (Tmem41b 1428586_PM_at): −1.89
- FC (Tox3 1436600_PM_at): −1.56
- FC (Trim9 1434249_PM_s_at): −1.58
- FC (Ttc14 1437878_PM_s_at): −1.64
- FC (Tubgcp4 1433659_PM_at): −1.54
- FC (Uba2 1437278_PM_a_at): −1.50
- FC (Uba3 1435164_PM_s_at): −1.65
- FC (Zdhhc20 1434236_PM_at): −1.64
- FC (Zfp110 1437236_PM_a_at): −1.77
- FC (Zfp260 1436495_PM_s_at): −1.65
- FC (Zfp788 1429371_PM_at): −1.65
